Earlier results as cited in patent US20120035270A1, “PAEDIATRIC SOLUTIONS COMPRISING A BETA-BLOCKER” (priority 2009, published 2012).

How the values were obtained:
[1] = system: B. Subtilis, S. Aureus and E. Coli; details: Takahashi et al. 1983
B. Subtilis = details: growth of B. Subtilis
S. Aureus = details: growth of S. Aureus
E. Coli = details: growth of E. Coli
[2] = system: Infantile capillary hemangiomas (IH); details: severe hemangiomas of infancy, Léauté-Labrèze et al. 2008

CC(C)(C)NC[C@H](O)COc1nsnc1N1CCOCC1 [Timolol]
antimicrobial effects [1]: do not have these antimicrobial effects

CC(=O)c1cc2cccc(OCC(O)CNC(C)C)c2o1 (stereo not drawn) [befunolol]
antimicrobial effects [1]: do not have these antimicrobial effects

Cc1ccc(Cl)c(OCC(O)CNC(C)(C)C)c1 (stereo not drawn) [bupranolol]
minimum inhibitory concentration (B. Subtilis): 0.1%
minimum inhibitory concentration (S. Aureus): 0.05%
minimum inhibitory concentration (E. Coli): 0.05%

CC(C)NCC(O)COc1cccc2ccccc12 (stereo not drawn) [propranolol, 1-(isopropylamino)-3-(naphthalen-1-yloxy)propan-2-ol]
control and treatment of the growth of IH [2]: could efficiently be used to control and even to treat the growth of IH
